In brackets after ≈: the same amount, converted by molar mass.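 Following 48 hours of exposure in 96-well plates, responses at five concentrations were used to interpolate endpoints linearly. GI50 is the concentration that inhibits growth by half. At the TGI there is no net growth.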 Square brackets hold non-standard residues; d marks the D form. Peptide text beside a SMILES is read from it. * marks the point of attachment. ξ: configuration not given here. Boc = CC(C)(C)OC(=O)*; ξV = CC(C)C(N)C(=O)O; OBn = c1ccc(CO*)cc1
Columns and labels:
Experiment in all cases: DTP human tumour cell line panel, 48 h
A498 renal = tested on: A498 renal
A549 NSCLC = tested on: A549 NSCLC
ACHN renal = tested on: ACHN renal
BT-549 breast = tested on: BT-549 breast
CAKI-1 renal = tested on: CAKI-1 renal
CCRF-CEM leukemia = tested on: CCRF-CEM leukemia
COLO 205 colon = tested on: COLO 205 colon
DU-145 prostate = tested on: DU-145 prostate
EKVX NSCLC = tested on: EKVX NSCLC
HCC-2998 colon = tested on: HCC-2998 colon
HCT-116 colon = tested on: HCT-116 colon
HCT-15 colon = tested on: HCT-15 colon
HOP-62 NSCLC = tested on: HOP-62 NSCLC
HOP-92 NSCLC = tested on: HOP-92 NSCLC
HS 578T breast = tested on: HS 578T breast
HT29 colon = tested on: HT29 colon
IGROV1 ovarian = tested on: IGROV1 ovarian
KM12 colon = tested on: KM12 colon
LOX IMVI melanoma = tested on: LOX IMVI melanoma
M14 melanoma = tested on: M14 melanoma
MALME-3M melanoma = tested on: MALME-3M melanoma
MCF7 breast = tested on: MCF7 breast
MDA-MB-231 breast = tested on: MDA-MB-231 breast
MDA-MB-435 = tested on: MDA-MB-435
NCI-H226 lung = tested on: NCI-H226 lung
NCI-H23 lung = tested on: NCI-H23 lung
NCI-H460 lung = tested on: NCI-H460 lung
NCI-H522 lung = tested on: NCI-H522 lung
NCI/ADR-RES ovarian = tested on: NCI/ADR-RES ovarian
OVCAR-3 ovarian = tested on: OVCAR-3 ovarian
OVCAR-4 ovarian = tested on: OVCAR-4 ovarian
OVCAR-5 ovarian = tested on: OVCAR-5 ovarian
OVCAR-8 ovarian = tested on: OVCAR-8 ovarian
PC-3 prostate = tested on: PC-3 prostate
RPMI-8226 leukemia = tested on: RPMI-8226 leukemia
SF-268 CNS = tested on: SF-268 CNS
SF-295 CNS = tested on: SF-295 CNS
SF-539 CNS = tested on: SF-539 CNS
SK-MEL-2 melanoma = tested on: SK-MEL-2 melanoma
SK-MEL-28 melanoma = tested on: SK-MEL-28 melanoma
SK-MEL-5 melanoma = tested on: SK-MEL-5 melanoma
SN12C renal = tested on: SN12C renal
SNB-19 CNS = tested on: SNB-19 CNS
SNB-75 CNS = tested on: SNB-75 CNS
SW-620 colon = tested on: SW-620 colon
T-47D breast = tested on: T-47D breast
TK-10 renal = tested on: TK-10 renal
U251 CNS = tested on: U251 CNS
UACC-257 melanoma = tested on: UACC-257 melanoma
UACC-62 melanoma = tested on: UACC-62 melanoma
UO-31 renal = tested on: UO-31 renal
HL-60(TB) leukemia = tested on: HL-60(TB) leukemia
K-562 leukemia = tested on: K-562 leukemia

Q: What does the source list for `COc1ccc(CN2C(=O)/C(=C\c3cc(OC)c(OC)c(OC)c3)c3ccccc32)cc1`?
A: GI50 (A498 renal): 2.79 µM; TGI (A498 renal): 14.3 µM; GI50 (A549 NSCLC): 2.51 µM; TGI (A549 NSCLC): > 100 µM; GI50 (ACHN renal): 2.06 µM; TGI (ACHN renal): 4.41 µM; GI50 (BT-549 breast): 1.08 µM; TGI (BT-549 breast): 7.53 µM; GI50 (CAKI-1 renal): 2.63 µM; TGI (CAKI-1 renal): 20.3 µM; GI50 (CCRF-CEM leukemia): 1.94 µM; TGI (CCRF-CEM leukemia): > 100 µM; GI50 (COLO 205 colon): 1.89 µM; TGI (COLO 205 colon): 3.44 µM; GI50 (DU-145 prostate): 2.32 µM; TGI (DU-145 prostate): 6.98 µM; GI50 (EKVX NSCLC): 2.99 µM; TGI (EKVX NSCLC): 55.1 µM; GI50 (HCC-2998 colon): 1.78 µM; TGI (HCC-2998 colon): 3.31 µM; GI50 (HCT-116 colon): 1.61 µM; TGI (HCT-116 colon): 3.05 µM; GI50 (HCT-15 colon): 1.9 µM; TGI (HCT-15 colon): 3.86 µM; GI50 (HOP-62 NSCLC): 2.42 µM; TGI (HOP-62 NSCLC): 4.98 µM; GI50 (HOP-92 NSCLC): 1.96 µM; TGI (HOP-92 NSCLC): 7.3 µM; GI50 (HS 578T breast): 3.78 µM; TGI (HS 578T breast): 55.5 µM; GI50 (HT29 colon): 1.68 µM; TGI (HT29 colon): 3.79 µM; GI50 (IGROV1 ovarian): 1.72 µM; TGI (IGROV1 ovarian): 4.64 µM; GI50 (KM12 colon): 1.89 µM; TGI (KM12 colon): 3.57 µM; GI50 (LOX IMVI melanoma): 1.76 µM; TGI (LOX IMVI melanoma): 3.3 µM; GI50 (M14 melanoma): 2.41 µM; TGI (M14 melanoma): 5.48 µM; GI50 (MALME-3M melanoma): 0.562 µM; TGI (MALME-3M melanoma): 3.3 µM; GI50 (MCF7 breast): 2.86 µM; TGI (MCF7 breast): 15.9 µM; GI50 (MDA-MB-231 breast): 3.34 µM; TGI (MDA-MB-231 breast): > 100 µM; GI50 (MDA-MB-435): 2.09 µM; TGI (MDA-MB-435): 5.08 µM; GI50 (NCI-H226 lung): 2.96 µM; TGI (NCI-H226 lung): 9.23 µM; GI50 (NCI-H23 lung): 2.35 µM; TGI (NCI-H23 lung): 6.43 µM; GI50 (NCI-H460 lung): 2.08 µM; TGI (NCI-H460 lung): 4.09 µM; GI50 (NCI-H522 lung): 1.58 µM; TGI (NCI-H522 lung): 3.57 µM; GI50 (NCI/ADR-RES ovarian): 2.97 µM; TGI (NCI/ADR-RES ovarian): > 100 µM; GI50 (OVCAR-3 ovarian): 1.62 µM; TGI (OVCAR-3 ovarian): 3.22 µM; GI50 (OVCAR-4 ovarian): 3.25 µM; TGI (OVCAR-4 ovarian): > 100 µM; GI50 (OVCAR-5 ovarian): 2.71 µM; TGI (OVCAR-5 ovarian): 6.48 µM; GI50 (OVCAR-8 ovarian): 3.05 µM; TGI (OVCAR-8 ovarian): > 100 µM; GI50 (PC-3 prostate): 3.14 µM; TGI (PC-3 prostate): > 100 µM; GI50 (RPMI-8226 leukemia): 2.47 µM; TGI (RPMI-8226 leukemia): 7.57 µM; GI50 (SF-268 CNS): 2.65 µM; TGI (SF-268 CNS): 7.93 µM; GI50 (SF-295 CNS): 3.79 µM; TGI (SF-295 CNS): 35.8 µM; GI50 (SF-539 CNS): 2.17 µM; TGI (SF-539 CNS): 4.33 µM; GI50 (SK-MEL-2 melanoma): 1.87 µM; TGI (SK-MEL-2 melanoma): 4.11 µM; GI50 (SK-MEL-28 melanoma): 1.82 µM; TGI (SK-MEL-28 melanoma): 3.74 µM; GI50 (SK-MEL-5 melanoma): 2.51 µM; TGI (SK-MEL-5 melanoma): 6.63 µM; GI50 (SN12C renal): 3.04 µM; TGI (SN12C renal): > 100 µM; GI50 (SNB-19 CNS): 1.81 µM; TGI (SNB-19 CNS): 3.56 µM; GI50 (SNB-75 CNS): 4.08 µM; TGI (SNB-75 CNS): > 100 µM; GI50 (SW-620 colon): 2.15 µM; TGI (SW-620 colon): 4.85 µM; GI50 (T-47D breast): 2.06 µM; TGI (T-47D breast): 7.31 µM; GI50 (TK-10 renal): 1.14 µM; TGI (TK-10 renal): 4.33 µM; GI50 (U251 CNS): 1.56 µM; TGI (U251 CNS): 2.98 µM; GI50 (UACC-257 melanoma): 2.15 µM; TGI (UACC-257 melanoma): 6.67 µM; GI50 (UACC-62 melanoma): 1.6 µM; TGI (UACC-62 melanoma): 3.51 µM; GI50 (UO-31 renal): 1.18 µM; TGI (UO-31 renal): 2.91 µM

Q: How did the GI50 (HL-60(TB) leukemia) turn out when `CC(C)C(NC(=O)CNC(=O)OC(C)(C)C)C(=O)OCc1ccccc1` (stereo not drawn) (Boc-Gly-[ξV]-OBn) was run?
A: The GI50 was 86.5 µg/mL (≈ 237 µM).

Q: And the GI50 (K-562 leukemia)?
A: The GI50 was 30.4 µg/mL (≈ 83.5 µM).

Source: PubChem BioAssay (NCI)
